Measurements reported in patent publication US7915292B2, “Antibacterial quinoline derivatives” (Janssen Pharmaceutica NV, priority 2005, dated 2011).
In brackets after ≈: the same amount, converted by molar mass.

Tests used:
ECO 25922 = assay: Microtitre plate assay, IC90 determination, ECO 25922; assay type: cell-based, E. coli; details: Escherichia coli; 90% inhibitory concentration for bacterial growth; strain ECO 25922; 24 hours at 37° C.; read-out: IC90 (μg/ml) ECO 25922
Procedure: (§1) Stocks (0.5 ml/tube) were stored at -70° C. until use. Bacteria titrations were performed in microtiter plates to detect the TCID50, in which the TCID50 represents the dilution that gives rise to bacterial growth in 50% of inoculated cultures. In general, an inoculum level of approximately 100 TCID50 was used for susceptibility testing. […] Serial five-fold dilutions (45 μl in 180 μl) were made directly in the microtiter plates from column 2 to reach column 11. Untreated control samples with (column 1) and without (column 12) inoculum were included in each microtiter plate. Depending on the bacteria type, approximately 10 to 60 CFU per well of bacteria inoculum (100 TCID50), in a volume of 100 μl in 2.8× Mueller-Hinton broth medium, was added to the rows […]. The same volume of broth medium without inoculum was added to column 12 in row A to H. The cultures were incubated at 37° C. for 24 hours under a normal atmosphere (incubator with open air valve and continuous ventilation). At the end of incubation, one day after inoculation, the bacterial growth was quantitated fluorometrically. Therefore resazurin (0.6 mg/ml) was added in a volume of 20 μl to all wells 3 hours after inoculation, and the plates were re-incubated overnight. A change in colour from blue to pink indicated the growth of bacteria. The fluorescence was read in a computer-controlled fluorometer (Cytofluor Biosearch) at an excitation wavelength of 530 nm and an emission wavelength of 590 nm. The % growth inhibition achieved by the compounds was calculated according to standard methods. The IC90 (expressed in μg/ml) was defined as the 90% inhibitory concentration for bacterial growth.

M. Smegmatis ATCC607 = assay: In-vitro anti-bacterial activity against strain M. smegmatis ATCC607 (Alamar Blue growth inhibition); assay type: cell-based; details: 48 hours incubation; for IC50: Mycolicibacterium smegmatis, read-out: M. smegmatis pIC50 (converted)
Procedure: Serial five-fold dilutions (45 μl in 180 μl) were made directly in the microtiter plates from column 2 to 11 using a customised robot system (Zymark Corp., Hopkinton, Mass.). Pipette tips were changed after every 3 dilutions to minimize pipetting errors with high hydrophobic compounds. Untreated control samples with (column 1) and without (column 12) inoculum were included in each microtiter plate. Approximately 250 CFU per well of bacteria inoculum, in a volume of 100 μl in 2.8× Mueller-Hinton broth medium, was added to the rows […]. The same volume of broth medium without inoculum was added to column 12 in row A to H. The cultures were incubated at 37° C. for 48 hours in a humidified 5% CO2 atmosphere (incubator with open air valve and continuous ventilation). At the end of incubation, two days after inoculation, the bacterial growth was quantitated fluorometrically. Therefore Alamar Blue (10×) was added to all wells in a volume of 20 μl and plates were incubated for another 2 hours at […] The fluorescence was read in a computer-controlled fluorometer (Cytofluor, Biosearch) at an excitation wavelength of 530 nm and an emission wavelength of 590 nm (gain 30). The percentage growth inhibition achieved by the compounds was calculated according to standard methods and expressed as pIC50 values.

[1] = test system: Mycobacterium tuberculosis (strain H37RV); assay: In-vitro method for testing compounds against M. tuberculosis (resazurin growth inhibition); assay type: cell-based; details: Mycobacterium tuberculosis, 168 h, 7 days incubation, read-out: M. tuberculosis pIC50 (converted)
STA 29213 = assay: Microtitre plate assay, IC90 determination, STA 29213; assay type: cell-based, S. aureus; details: 90% inhibitory concentration for bacterial growth, strain STA 29213, 24 hours at 37° C.; for IC90: Staphylococcus aureus, read-out: IC90 (μg/ml) STA 29213
Procedure: as §1

STA RMETH = assay: Microtitre plate assay, IC90 determination, STA RMETH; assay type: cell-based, S. aureus; details: Staphylococcus aureus; 90% inhibitory concentration for bacterial growth; strain STA RMETH; 24 hours at 37° C.; read-out: IC90 (μg/ml) STA RMETH
Procedure: as §1

SPY 8668 = assay: Microtitre plate assay, IC90 determination, SPY 8668; assay type: cell-based, S. pyogens; details: 90% inhibitory concentration for bacterial growth; strain SPY 8668; 24 hours at 37° C.; read-out: IC90 (μg/ml) SPY 8668
Procedure: as §1

BSU 43639 = assay: Microtitre plate assay, IC90 determination, BSU 43639; assay type: cell-based, Bacillus subtilis; details: Bacillus subtilis; 90% inhibitory concentration for bacterial growth; strain BSU 43639; 24 hours at 37° C.; read-out: IC90 (μg/ml) BSU 43639
Procedure: as §1

STA 25923 = assay: Microtitre plate assay, IC90 determination, STA 25923; assay type: cell-based, S. aureus; details: Staphylococcus aureus; 90% inhibitory concentration for bacterial growth; strain STA 25923; 24 hours at 37° C.; read-out: IC90 (μg/ml) STA 25923
Procedure: as §1

PAE 27853 = assay: Microtitre plate assay, IC90 determination, PAE 27853; assay type: cell-based, Pseudomonas aeruginosa; details: Pseudomonas aeruginosa; 90% inhibitory concentration for bacterial growth; strain PAE 27853; 24 hours at 37° C.; read-out: IC90 (μg/ml) PAE 27853
Procedure: as §1

SMU 33402 = assay: Microtitre plate assay, IC90 determination, SMU 33402; assay type: cell-based, S. mutans; details: Streptococcus mutans; 90% inhibitory concentration for bacterial growth; strain SMU 33402; 24 hours at 37° C.; read-out: IC90 (μg/ml) SMU 33402
Procedure: as §1

SPN 6305 = assay: Microtitre plate assay, IC90 determination, SPN 6305; assay type: cell-based, S. pneumoniae; details: Streptococcus pneumoniae; 90% inhibitory concentration for bacterial growth; strain SPN 6305; 24 hours at 37° C.; read-out: IC90 (μg/ml) SPN 6305
Procedure: as §1

EFA 29212 = assay: Microtitre plate assay, IC90 determination, EFA 29212; assay type: cell-based, E. faecalis; details: Enterococcus faecalis; 90% inhibitory concentration for bacterial growth; strain EFA 29212; 24 hours at 37° C.; read-out: IC90 (μg/ml) EFA 29212
Procedure: as §1

LMO 49594 = assay: Microtitre plate assay, IC90 determination, LMO 49594; assay type: cell-based, Listeria monocytogenes; details: Listeria monocytogenes; 90% inhibitory concentration for bacterial growth; strain LMO 49594; 24 hours at 37° C.; read-out: IC90 (μg/ml) LMO 49594
Procedure: as §1

Row | Compound | IC90 (ECO 25922) [µg/mL] | IC50 (M. Smegmatis ATCC607) [µM] | IC50 [1] [µM] | melting point [°C] | IC90 (μg/ml) STA 29213 (STA 29213) [µg/mL] | M. smegmatis pIC50 (M. Smegmatis ATCC607) | also measured
1 | CN(C)C(=O)CN(Cc1ccccc1)C(c1ccccc1)c1cc2cc(Br)ccc2nc1-c1ccccc1 (centres unmarked) [Compound 53] | 14.2 (≈ 25.2 µM) | 0.316 | 20 | 110 | – | – | –
2 | CCN(CC)C(=O)CN(C)C(c1ccccc1)c1cc2cc(Br)ccc2nc1OC (centres unmarked) [Compound 11] | – | – | – | – | 11.8 (≈ 25.1 µM) | 5.1 | –
3 | COc1nc2ccc(Br)cc2cc1C(c1ccccc1)N(CC(=O)N1CCN(C)CC1)Cc1ccccc1 (centres unmarked) [Compound 104] | 14.4 (≈ 25.1 µM) | 1.58 | – | 152 | – | – | IC90 (STA RMETH): 12.8 µg/mL (≈ 22.3 µM); IC90 (STA 29213): 11.4 µg/mL (≈ 19.9 µM); IC90 (SPY 8668): 11.4 µg/mL (≈ 19.9 µM); IC90 (BSU 43639): 12.8 µg/mL (≈ 22.3 µM); IC90 (STA 25923): 12.8 µg/mL (≈ 22.3 µM); IC90 (PAE 27853): 14.4 µg/mL (≈ 25.1 µM); IC90 (SMU 33402): 11.4 µg/mL (≈ 19.9 µM); IC90 (SPN 6305): 14.4 µg/mL (≈ 25.1 µM)
4 | COc1nc2ccc(Br)cc2cc1C(c1ccccc1)N(CC(=O)N1CCOCC1)Cc1ccccc1 (centres unmarked) [Compound 112] | – | – | – | – | 14.1 (≈ 25.2 µM) | 5.8 | –
5 | CNC(=O)CN(C)C(c1ccccc1)c1cc2cc(Br)ccc2nc1OC (centres unmarked) [Compound 3] | – | 89.1 | > 100 | 190 | – | – | –
6 | CCOC(=O)CN(Cc1cccc2ncccc12)C(c1ccccc1)c1cc2cc(Br)ccc2nc1OC (centres unmarked) [Compound 145] | – | 31.6 | – | 96 | – | – | –
7 | COc1cccc(CN(CCN(C)C)C(c2ccccc2)c2cc3cc(Br)ccc3nc2OC)c1 (centres unmarked) [Compound 20] | 15.7 (≈ 29.4 µM) | 1.26 | – | – | – | – | IC90 (STA RMETH): 14 µg/mL (≈ 26.2 µM); IC90 (STA 29213): 14 µg/mL (≈ 26.2 µM); IC90 (SPY 8668): 12.5 µg/mL (≈ 23.4 µM); IC90 (EFA 29212): 15.7 µg/mL (≈ 29.4 µM); IC90 (LMO 49594): 15.7 µg/mL (≈ 29.4 µM); IC90 (SMU 33402): 12.5 µg/mL (≈ 23.4 µM); IC90 (SPN 6305): 15.7 µg/mL (≈ 29.4 µM)
8 | Cc1ccc2nc(-c3ccccc3)c(C(c3ccccc3)N(CC(=O)N3CCCCC3)Cc3ccccc3)cc2c1 (centres unmarked) [Compound 66] | 13.6 (≈ 25.2 µM) | 2.51 | 39.8 | 78 | – | – | –
9 | CC(C)N(C)C(=O)CN(Cc1ccccc1)C(c1cccnc1)c1cc2ccccc2nc1-c1ccccc1 (centres unmarked) [Compound 34] | – | – | – | – | 51.5 (≈ 100 µM) | 5.8 | –
10 | CCOC(=O)CN(Cc1ccccc1)C(c1ccccc1)c1cc2cc(Br)ccc2nc1OC (centres unmarked) [Compound 137] | 13 (≈ 25 µM) | – | – | – | – | – | IC90 (STA 25923): 11.6 µg/mL (≈ 22.3 µM)
